Laboratory results as given in ChEMBL document CHEMBL3880435, “Compounds and compositions as protein kinase inhibitors” (2013).
Blank lines part the entries; values can stand above or below the compound they belong to.

How the values were obtained:
[1] = Hepatic extraction ratio in human liver microsomes at 1 uM in presence of NADPH by LC-MS/MS method; type: ADME; details: read-out: ERH
[2] = Antitumor activity against human A375 cells xenografted in Nu/Nu mouse assessed as tumor volume level at 10 mg/kg, dosed BID for 14 days commencing on day 19 measured after 14 days post-first dose relative to initial tumor volume; type: functional, A-375
[3] = Antitumor activity against human A375 cells xenografted in Nu/Nu mouse assessed as tumor volume level at 1 mg/kg, dosed BID for 14 days commencing on day 19 measured after 14 days post-first dose relative to initial tumor volume; type: functional, A-375
[4] = Antitumor activity against human A375 cells xenografted in Nu/Nu mouse assessed as tumor volume level at 3 mg/kg, dosed BID for 14 days commencing on day 19 measured after 14 days post-first dose relative to initial tumor volume; type: functional, A-375
[5] = Antitumor activity against human A375 cells xenografted in Nu/Nu mouse assessed as tumor volume level at 20 mg/kg, dosed BID for 14 days commencing on day 19 measured after 14 days post-first dose relative to initial tumor volume; type: functional, A-375
[6] = biological target: Serine/threonine-protein kinase B-raf (Homo sapiens, UniProt P15056, V600E); test: Inhibition of B-Raf V600E mutant (unknown origin) using biotinylated Mek substrate incubated for 60 mins by amplified luminescence proximity homogeneous assay
Chain of Serine/threonine-protein kinase B-raf (P15056 2-766 V600E limits assumed): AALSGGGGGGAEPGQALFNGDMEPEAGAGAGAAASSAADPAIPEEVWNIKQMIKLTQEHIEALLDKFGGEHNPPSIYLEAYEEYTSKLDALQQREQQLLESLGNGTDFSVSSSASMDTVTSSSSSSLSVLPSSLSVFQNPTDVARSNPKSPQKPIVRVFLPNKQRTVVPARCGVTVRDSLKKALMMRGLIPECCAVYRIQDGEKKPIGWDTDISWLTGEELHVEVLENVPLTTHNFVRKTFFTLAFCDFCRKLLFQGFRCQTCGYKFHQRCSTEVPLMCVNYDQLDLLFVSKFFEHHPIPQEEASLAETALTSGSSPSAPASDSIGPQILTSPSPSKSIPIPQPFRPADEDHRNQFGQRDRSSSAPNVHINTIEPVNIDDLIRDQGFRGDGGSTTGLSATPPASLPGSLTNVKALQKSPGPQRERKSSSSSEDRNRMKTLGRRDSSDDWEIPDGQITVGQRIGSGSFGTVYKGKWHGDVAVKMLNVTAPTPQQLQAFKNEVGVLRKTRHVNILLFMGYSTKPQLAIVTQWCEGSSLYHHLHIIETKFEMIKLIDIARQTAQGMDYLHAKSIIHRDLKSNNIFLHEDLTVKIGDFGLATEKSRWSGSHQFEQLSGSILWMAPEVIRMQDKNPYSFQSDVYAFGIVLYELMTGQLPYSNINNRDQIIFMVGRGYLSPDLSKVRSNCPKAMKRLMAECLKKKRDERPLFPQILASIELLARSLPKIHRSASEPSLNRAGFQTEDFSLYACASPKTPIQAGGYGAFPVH

hepatic extraction ratio at 1 µM [1]: < 0.31
SMILES: COC(=O)N[C@@H](C)CNc1nccc(-c2cn(C(C)C)nc2-c2cccc(NS(C)(=O)=O)c2F)n1

SMILES: COC(=O)N[C@@H](C)CNc1nccc(-c2cn(C(C)C)nc2-c2cc(Cl)cc(NS(C)(=O)=O)c2F)n1 [ENCORAFENIB]
Activity [2]: <80% | Activity [3]: 20 - 50% | Activity [4]: 20% | Activity [5]: <80%

IC50 [6]: 0.95 nM
SMILES: COC(=O)N[C@@H](C)CNc1nccc(-c2cn(C(C)C)nc2-c2cc(C)cc(NS(C)(=O)=O)c2F)n1

IC50 [6]: 1 nM
SMILES: COC(=O)N[C@@H](C)CNc1nccc(-c2cn(C(C)C)nc2-c2cc(C)cc(NS(C)(=O)=O)c2Cl)n1
